PubChem BioAssay (NCI)
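In this assay, cells in 96-well plates receive the compound at five concentrations for 48 hours. Endpoints are linearly interpolated between the surrounding concentrations. GI50 marks 50% less growth. TGI: concentration producing complete growth inhibition.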

Columns and labels:
Assay in all cases: DTP human tumour cell line panel, 48 h
[1] = system: A549 NSCLC
[2] = system: DU-145 prostate
[3] = system: LOX IMVI melanoma
[4] = system: NCI-H226 lung
[5] = system: NCI-H23 lung
[6] = system: NCI-H522 lung
[7] = system: OVCAR-4 ovarian
[8] = system: RXF 393 renal
[9] = system: SK-MEL-5 melanoma
[10] = system: HCC-2998 colon

| SMILES | GI50 [1] | TGI [1] | GI50 [2] | TGI [2] | GI50 [3] | TGI [3] | GI50 [4] | TGI [4] | GI50 [5] | TGI [5] | GI50 [6] | TGI [6] | GI50 [7] | TGI [7] | GI50 [8] | TGI [8] | GI50 [9] | TGI [9] | TGI [10] | GI50 [10] |
| --- | --- | --- | --- | --- | --- | --- | --- | --- | --- | --- | --- | --- | --- | --- | --- | --- | --- | --- | --- | --- |
| N/C(=N\N=C\c1ccc(-c2ccccc2)cc1)N[N+](=O)[O-] | 2.75 µM | > 100 µM | 5.76 µM | > 100 µM | 5.75 µM | > 100 µM | > 28.1 µM | > 100 µM | 9.2 µM | > 100 µM | 2.13 µM | > 100 µM | 10.8 µM | > 100 µM | 2.78 µM | 80.2 µM | 3.52 µM | > 100 µM |  |  |
| CC(=O)OC1CCn2nnc(CO[Si](C)(C)C(C)(C)C)c21 (stereo not drawn) |  | > 100 µM |  |  |  |  |  | > 100 µM |  | > 100 µM |  | > 100 µM |  | > 100 µM |  | > 100 µM |  | > 100 µM | > 100 µM |  |
| N#CC(C(=O)CCC(=O)Nc1cccc(Cl)c1)c1ccccc1 (stereo not drawn) |  | > 100 µM |  |  |  | > 100 µM |  | > 100 µM |  | > 100 µM |  | > 100 µM |  | > 100 µM |  | > 100 µM |  | > 100 µM | > 100 µM |  |
| COc1cc(C(=O)C/C(CCC(=O)Nc2ccccc2[N+](=O)[O-])=N\NC(=O)CC#N)ccc1O |  | > 100 µM |  |  |  | > 100 µM |  | > 100 µM |  | > 100 µM |  | > 100 µM |  | > 100 µM |  | > 100 µM |  | > 100 µM | > 100 µM |  |
| CN(C)c1ccc(C=C2C(=O)OC(C)(C)OC2=O)cc1Br |  | > 100 µM |  |  |  | > 100 µM |  | > 100 µM |  | > 100 µM |  | > 100 µM |  | > 100 µM |  | > 100 µM |  | > 100 µM | > 100 µM |  |
| COC1CC(OS(=O)(=O)c2ccc(C)cc2)C(OC(=O)c2ccccc2)C(C)O1 (stereo not drawn) | > 100 µM | > 100 µM |  |  | > 100 µM | > 100 µM | > 100 µM | > 100 µM | > 100 µM | > 100 µM | > 100 µM | > 100 µM | > 100 µM | > 100 µM | > 10 µM | > 100 µM | > 100 µM | > 100 µM | > 100 µM | > 100 µM |
| COc1ccc(C(OCC2OC(n3ccc(NC(=O)c4ccccc4)nc3=O)C(O)C2O)(c2ccccc2)c2ccccc2)cc1 (stereo not drawn) |  | 14.9 µM |  | 10.3 µM |  |  |  | 7.87 µM |  | 3 µM |  | 5.61 µM |  | 6.04 µM |  | 10.8 µM |  | 3.32 µM | 12.6 µM |  |
| Cc1c(C#N)c(=O)[nH]c(=O)n1CCN1CCN(C(=O)NCCCCCCNC(=O)N2CCN(CCn3c(C)c(C#N)c(=O)[nH]c3=O)CC2)CC1 |  | > 100 µM |  |  |  | > 100 µM |  |  |  | > 100 µM |  |  |  | > 100 µM |  | > 100 µM |  | > 100 µM | > 100 µM |  |
| O=C1c2ccccc2-c2c1c1ccc([N+](=O)[O-])cc1c(=O)n2CCCBr | > 100 µM | > 100 µM | > 100 µM | > 100 µM | 4.18 µM | > 100 µM |  |  | 1.1 µM | 5.76 µM | 96.8 µM | > 100 µM | > 100 µM | > 100 µM | > 100 µM | > 100 µM |  |  | > 100 µM | > 100 µM |
| COc1ccc(C2=C(Cl)c3cc(OC)c(OC)cc3C2Cl)cc1OC (stereo not drawn) |  | 42 µM |  |  |  | 31.1 µM |  |  |  | 38.2 µM |  |  |  | 47.5 µM |  | 35.3 µM |  | 28.5 µM |  |  |
| c1ccc(SC(CCCCC(Sc2ccccc2)Sc2ccccc2)Sc2ccccc2)cc1 |  | > 100 µM |  |  |  | > 100 µM |  |  |  | > 100 µM |  |  |  | > 100 µM |  | > 100 µM |  | > 100 µM | > 100 µM |  |
| C=CCOC1OC(CO[Si](C)(C)C(C)(C)C)C(OCc2ccccc2)C(OCc2ccccc2)C1OCc1ccccc1 (stereo not drawn) |  | > 100 µM |  | > 100 µM |  | > 100 µM |  | > 100 µM |  | > 100 µM |  | > 100 µM |  | > 100 µM |  |  |  | > 100 µM |  |  |
| COc1ccc(NC(=O)C/C(C)=N\N=C(N)N)c([N+](=O)[O-])c1 |  | > 100 µM |  |  |  | > 100 µM |  | > 100 µM |  | > 100 µM |  | > 100 µM |  | > 100 µM |  | > 100 µM |  | > 100 µM | > 100 µM |  |
| Cc1cc2c(C)n(Cc3ccc(Cl)cc3Cl)nc2c(C#N)c1C |  | > 100 µM |  |  |  | > 100 µM |  | > 56.2 µM |  | > 100 µM |  | > 100 µM |  | > 100 µM |  | 57.3 µM |  | > 100 µM | > 100 µM |  |
| CCC1CN2CCc3cc(OC)c(OC)cc3C2CC1CC1c2cc(OC)c(OC)cc2CCN1C(=O)C1CCCN1C(=O)OCc1ccccc1 (stereo not drawn) |  | 39.2 µM |  |  |  | 29.1 µM |  | 30.9 µM |  | 32.7 µM |  |  |  | 27.4 µM |  | 22.4 µM |  | 28.8 µM | 30 µM |  |
| C=C1CC[C@@H]2[C@](C)(COC(C)=O)[C@@H](O)CC[C@@]2(C)[C@@H]1COc1ccc2ccc(=O)oc2c1 | > 100 µM | > 100 µM | > 100 µM | > 100 µM | > 100 µM | > 100 µM |  |  | > 100 µM | > 100 µM | > 100 µM | > 100 µM | > 100 µM | > 100 µM | 14.7 µM | 58.9 µM | > 100 µM | > 100 µM | > 100 µM | > 100 µM |
| O=C(O)C1(P(=O)(O)O)CC1 |  | > 100 µM |  |  |  |  |  |  |  | > 100 µM |  | > 100 µM |  | > 100 µM |  | > 100 µM |  | > 100 µM | > 100 µM |  |
| CCOC(=O)C(=O)Nc1c(CC)cccc1C(C)C |  | > 100 µM |  |  |  | > 100 µM |  | > 100 µM |  | > 100 µM |  |  |  | > 100 µM |  | > 100 µM |  |  | > 100 µM |  |
| CN1CCN(Cc2ccc(NC(=O)c3cncc(C#Cc4cnc(N)c5ccncc45)c3)cc2C(F)(F)F)CC1 | 1.38 µM | 6.92 µM | 0.527 µM | 6.67 µM | 0.176 µM | 0.707 µM |  |  | 0.9 µM | 6.79 µM | 0.897 µM | 8.51 µM | 0.283 µM | 6.32 µM | 0.516 µM | 2.28 µM | 1.18 µM | 3.93 µM | 7.89 µM | 1.78 µM |
| C=C1COC(/C=C(\C)CC/C=C(\C)CCl)C1 (stereo not drawn) |  | > 100 µM |  |  |  | > 100 µM |  | > 100 µM |  | > 100 µM |  | > 100 µM |  | > 100 µM |  | > 100 µM |  | > 100 µM | > 100 µM |  |
| O=C1C(=O)N(c2ccc(Cl)c(Cl)c2)C(=O)C(=O)C1c1nc2ccccc2s1 |  | > 100 µM |  |  |  | > 100 µM |  | > 100 µM |  | > 100 µM |  | > 100 µM |  | > 100 µM |  | > 100 µM |  | > 100 µM | > 100 µM |  |
